Read-outs that look alike come from different tables or passages of the source.
Key:
[1] = target: B-Raf (Homo sapiens (Human), UniProt P15056); test: B-Raf kinase activity biochemical assay (AlphaScreen, biotin-MEK1 phosphorylation); settings: B-Raf
Protocol: (§1) Compounds to be tested are diluted in dimethyl sulfoxide to a concentration of 0.1 mM. These are serially diluted 15 μL into 30 μL of dimethyl sulfoxide seven times in 96 well plates for a total of 8 dilution points, and for each dilution point 1 μL is added to a well of an assay plate. […] The reaction is started with addition of 10 μL of 200 μM ATP (i.e. final 100 μM ATP). After incubation of the kinase reaction for 45 minutes at room temperature, 5 μL/well of Stop Solution is added (25 mM Hepes pH 7.5, 100 mM EDTA, 0.01% BSA with donor beads (Streptavidin coated beads, Perkin Elmer), acceptor beads (Protein A coated, Perkin Elmer), and anti phosphor MEK1/2 antibody (CellSignal), each at final concentration 10 μg/mL). The plates are incubated for 3 hours at room temperature and read on Envision reader (Perkin Elmer). […] The signal vs. compound concentration is used to determine the IC50.

[2] = system: B-Raf; test: as above; settings: for Biochemical activity ratio B/V600E: ratio of IC50 B-Raf / B-Raf V600E; for Biochemical activity ratio B/C: ratio of IC50 B-Raf / c-Raf-1
Protocol: as §1

[3] = target: B-Raf V600E (Homo sapiens (Human), UniProt P15056, V600E); test: B-Raf V600E kinase activity biochemical assay (AlphaScreen, biotin-MEK1 phosphorylation); settings: for IC50: B-Raf V600E; for Biochemical activity ratio V600E/C: ratio of IC50 B-Raf V600E / c-Raf-1
Protocol: as §1

[4] = target: c-Raf-1 (Homo sapiens, UniProt P04049); test: c-Raf-1 kinase activity biochemical assay (AlphaScreen, biotin-MEK1 phosphorylation)
Protocol: as §1

[5] = target: CYP1A2 (Homo sapiens (Human), UniProt P05177); test: CYP enzyme inhibition, fluorescent substrate (CEC)
Protocol: (§2) CYP (Cytochrome P450) enzymes are the major drug metabolizing enzymes present in the liver. The inhibition of CYP enzyme activity (IC50) for each of CYP1A2, CYP2C19, CYP2C9, CYP2D6, CYP3A4(BFC) and CYP3A4(BQ) is determined for compounds, where inhibition of metabolism of a known substrate leads to a decrease in the fluorescence of the metabolized product. The fluorescence of the product is monitored as a function of compound concentration.
(§3) Compounds are dissolved in dimethyl sulfoxide to a concentration of 100 mM. These are diluted 1 μL into 82 μL of acetonitrile. An 11 μL aliquot of this solution is then added to 204 μL of cofactor mix (1.3% NADPH Regeneration system Solution A, 1.04% NADPH Regeneration system Solution B from BD Biosciences, 5% acetonitrile and 0.05% dimethyl sulfoxide). These are then serially diluted 1:1 (160 μL to 160 μL co-factor mix) for a total of 10 points. A 10 μL aliquot of this final mixture is dispensed into 384 well assay plates and incubated for 10 minutes at 37° C. Enzyme and substrate mix (10 μL; 0.5 pmol CYP1A2/5 μM CEC; 1.0 pmol CYP2C9/75 μM MFC; 0.5 pmol CYP2C19/25 μM CEC; 1.5 pmol CYP2D6/1.5 μM AMMC; 1.0 pmol CYP3A4/50 μM BFC; or 1.0 pmol CYP3A4/40 μM BQ) is added to these assay plates. Assay plates are incubated at 37° C. (CYP1A2-15 min; CYP2C9-45 min; CYP2C19, 2D6 and 3A4-30 min) and read in a Tecan Safire 2 plate reader (CYP1A2, 2C19 and 3A4 409 ex/460 em; CYP2C9 and 2D6 409 ex/530 em). The signal versus compound concentration is used to determine the IC50. The enzymes and substrates for this assay are obtained from BD Biosciences.

[6] = target: CYP2C19 (Homo sapiens (Human), UniProt P33261); test: CYP enzyme inhibition, fluorescent substrate (CEC)
Protocol: as §2
(§4) Compounds are dissolved in dimethyl sulfoxide to a concentration of 100 mM. These are diluted 1 μL into 82 μL of acetonitrile. […] These are then serially diluted 1:1 (160 μL to 160 μL co-factor mix) for a total of 10 points. A 10 μL aliquot of this final mixture is dispensed into 384 well assay plates and incubated for 10 minutes at 37° C. […] Assay plates are incubated at 37° C. […] The signal versus compound concentration is used to determine the IC50. The enzymes and substrates for this assay are obtained from BD Biosciences.

[7] = target: CYP2C9 (Homo sapiens (Human), UniProt P11712); test: CYP enzyme inhibition, fluorescent substrate (MFC)
Protocol: as §2, §4

[8] = target: CYP2D6 (Homo sapiens (Human), UniProt P10635); test: CYP enzyme inhibition, fluorescent substrate (AMMC); assay type: in vitro ADME; settings: read-out: Cyp IC50 2D6
Protocol: as §2, §3

[9] = target: CYP3A4(BFC) (Homo sapiens (Human), UniProt P08684); test: CYP enzyme inhibition, fluorescent substrate BFC
Protocol: as §2, §4

[10] = Relative solubility by turbidity threshold concentration in aqueous buffers (pH 1.5, 4.5, 6.8, 7.4); assay type: physicochemical; settings: for turbidity threshold (L, M, H) 1.4: pH 1.4 [sic] (method: SGF pH 1.5); for turbidity threshold (L, M, H) 6.8: pH 6.8 (SIF); for turbidity threshold (L, M, H) 7.4: pH 7.4 (HEPES)
Protocol: As an indication of relative solubility, the turbidity of compounds in aqueous solutions is assessed. To assess possible compound properties in different physiological compartments, such as stomach, intestine, and blood, a series of aqueous buffers with varying pH is used. Thus each compound is diluted into four different physiologically relevant buffers and solution turbidity is measured by spectrophotometry.
Compounds are dissolved at a concentration of 25 mM in dimethyl sulfoxide, then serially diluted 1:1 into a 96 well plate, diluting 10 times in pure dimethyl sulfoxide, with the final well of each row a dimethyl sulfoxide blank. In an assay plate, 99 μL of appropriate buffer is added to each well, and 1 μL of each sample dilution is added to the buffer, achieving a range of final total concentrations in aqueous solutions having different pH. The buffers used are Simulated Gastric Fluid (SGF-pH 1.5) 0.5M NaCl, pH 1.5; Simulated Intestinal fluid (SIF-pH 4.5 and pH 6.8) 0.05M NaH2PO4, pH 4.5 and 6.8; and Hepes Buffer (HEPES-pH 7.4) 10 mM HEPES, 150 mM NaCl, pH 7.4. Control compounds pyrene, estriol and propranolol HCl are also assessed. Plates are spun and then mixed for 1 minute, and the absorbance is read using a Tecan Safire II to read wavelengths in the visible range (490, 535, and 650 nm) at four locations per well, reflecting the degree of turbidity present. The average optical density for each wavelength in each well is graphed vs. compound concentration, and the concentration at which the curve crosses a threshold O.D. of 0.01 for each wavelength is reported as the endpoint turbidity assay result. The average of the three wavelengths is used to compare turbidity of compounds. Compounds are considered to have low solubility if the threshold concentration is <31.3 μM, moderate solubility if the threshold concentration is 31.3 μM to 250 μM, and high solubility if the threshold concentration is >250 μm.
The following table indicates the relative solubility (L=low, M=moderate, H=high) based on turbidity threshold concentration at each pH for exemplary compounds according to the invention as indicated: […]

[11] = read-out: Cyp IC50 2C19, CYP2C19, substrate CEC
[12] = read-out: Cyp IC50 2C9, CYP2C9, substrate MFC
[13] = read-out: Cyp IC50 3A4(BFC), CYP3A4, substrate BFC

Sequence of CYP1A2 (P05177 whole entry): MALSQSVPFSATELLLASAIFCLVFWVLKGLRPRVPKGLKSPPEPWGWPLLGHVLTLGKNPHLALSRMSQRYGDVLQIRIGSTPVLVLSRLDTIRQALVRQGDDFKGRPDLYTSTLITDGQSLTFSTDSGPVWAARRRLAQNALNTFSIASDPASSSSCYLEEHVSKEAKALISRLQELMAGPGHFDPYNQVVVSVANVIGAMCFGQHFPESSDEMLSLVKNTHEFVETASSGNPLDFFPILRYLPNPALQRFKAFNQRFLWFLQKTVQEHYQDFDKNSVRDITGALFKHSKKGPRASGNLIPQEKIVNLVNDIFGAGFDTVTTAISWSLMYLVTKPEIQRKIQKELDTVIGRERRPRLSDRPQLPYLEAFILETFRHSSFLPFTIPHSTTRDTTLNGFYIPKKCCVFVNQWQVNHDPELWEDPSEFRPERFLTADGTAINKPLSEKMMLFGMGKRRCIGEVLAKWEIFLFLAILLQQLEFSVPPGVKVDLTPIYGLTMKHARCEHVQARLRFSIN
Sequence of CYP2C9 (P11712 whole entry): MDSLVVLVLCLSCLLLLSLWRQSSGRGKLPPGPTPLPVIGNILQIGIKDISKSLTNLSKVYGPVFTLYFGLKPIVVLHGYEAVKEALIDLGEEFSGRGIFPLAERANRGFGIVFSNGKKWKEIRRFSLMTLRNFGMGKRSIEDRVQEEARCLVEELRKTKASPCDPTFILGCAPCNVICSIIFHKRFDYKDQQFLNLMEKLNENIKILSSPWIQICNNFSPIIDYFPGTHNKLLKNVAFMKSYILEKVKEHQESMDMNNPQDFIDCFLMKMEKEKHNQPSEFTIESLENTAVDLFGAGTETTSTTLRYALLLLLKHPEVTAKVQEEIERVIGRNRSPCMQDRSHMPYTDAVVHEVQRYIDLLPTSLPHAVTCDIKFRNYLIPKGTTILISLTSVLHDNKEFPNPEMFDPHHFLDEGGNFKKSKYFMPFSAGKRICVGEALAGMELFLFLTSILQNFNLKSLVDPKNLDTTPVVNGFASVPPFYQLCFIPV
Sequence of CYP2C19 (P33261 whole entry): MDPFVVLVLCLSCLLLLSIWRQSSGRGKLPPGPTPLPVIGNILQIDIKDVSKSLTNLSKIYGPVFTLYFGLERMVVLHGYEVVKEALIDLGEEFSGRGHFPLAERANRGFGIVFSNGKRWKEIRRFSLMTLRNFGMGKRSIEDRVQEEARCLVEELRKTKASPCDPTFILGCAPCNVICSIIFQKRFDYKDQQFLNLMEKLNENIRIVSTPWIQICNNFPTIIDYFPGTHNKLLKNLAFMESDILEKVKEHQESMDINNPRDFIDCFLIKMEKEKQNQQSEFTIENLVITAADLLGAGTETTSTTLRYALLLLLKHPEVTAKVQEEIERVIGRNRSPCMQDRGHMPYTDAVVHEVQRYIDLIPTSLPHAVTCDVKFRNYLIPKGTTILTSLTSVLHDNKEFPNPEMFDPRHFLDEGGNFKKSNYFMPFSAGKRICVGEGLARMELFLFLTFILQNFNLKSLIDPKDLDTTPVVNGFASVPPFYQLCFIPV
Sequence of B-Raf V600E (P15056 whole entry V600E): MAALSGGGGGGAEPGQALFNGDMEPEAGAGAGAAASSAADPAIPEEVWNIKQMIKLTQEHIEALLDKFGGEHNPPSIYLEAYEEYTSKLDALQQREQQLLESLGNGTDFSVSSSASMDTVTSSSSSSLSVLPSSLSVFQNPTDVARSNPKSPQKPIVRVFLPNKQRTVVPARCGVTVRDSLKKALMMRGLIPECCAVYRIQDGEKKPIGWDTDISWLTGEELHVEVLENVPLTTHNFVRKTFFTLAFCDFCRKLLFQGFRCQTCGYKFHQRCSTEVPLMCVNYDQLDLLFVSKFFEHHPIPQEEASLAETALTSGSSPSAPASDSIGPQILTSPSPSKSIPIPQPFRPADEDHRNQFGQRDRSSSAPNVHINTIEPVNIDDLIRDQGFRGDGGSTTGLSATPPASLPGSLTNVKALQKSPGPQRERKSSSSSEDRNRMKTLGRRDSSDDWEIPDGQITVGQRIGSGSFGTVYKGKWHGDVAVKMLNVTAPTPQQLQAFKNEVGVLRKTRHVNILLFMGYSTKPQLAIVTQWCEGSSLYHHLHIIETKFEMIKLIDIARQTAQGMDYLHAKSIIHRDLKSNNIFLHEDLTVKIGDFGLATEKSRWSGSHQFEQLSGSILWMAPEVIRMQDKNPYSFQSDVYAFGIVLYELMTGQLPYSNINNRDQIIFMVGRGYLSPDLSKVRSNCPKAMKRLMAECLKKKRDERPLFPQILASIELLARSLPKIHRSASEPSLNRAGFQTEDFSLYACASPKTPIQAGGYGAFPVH
Sequence of B-Raf (Homo sapiens (Human), UniProt P15056) (P15056 whole entry): as the sequence (P15056 whole entry V600E) above, with E600V counted along it
Sequence of CYP2D6 (P10635 whole entry): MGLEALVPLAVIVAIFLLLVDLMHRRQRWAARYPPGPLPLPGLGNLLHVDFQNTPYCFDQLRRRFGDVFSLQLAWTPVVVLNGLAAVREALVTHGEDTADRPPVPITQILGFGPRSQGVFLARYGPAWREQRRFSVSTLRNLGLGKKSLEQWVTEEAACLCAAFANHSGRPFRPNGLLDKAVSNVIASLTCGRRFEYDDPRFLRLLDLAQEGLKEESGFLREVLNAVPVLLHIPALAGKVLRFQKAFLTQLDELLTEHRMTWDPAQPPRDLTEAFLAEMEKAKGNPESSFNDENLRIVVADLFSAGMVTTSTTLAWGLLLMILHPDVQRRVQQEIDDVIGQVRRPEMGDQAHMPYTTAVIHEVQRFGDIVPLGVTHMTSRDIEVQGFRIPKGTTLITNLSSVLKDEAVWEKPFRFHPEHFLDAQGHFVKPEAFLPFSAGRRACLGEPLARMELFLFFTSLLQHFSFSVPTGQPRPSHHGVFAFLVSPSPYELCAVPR
Sequence of CYP3A4(BFC) (P08684 whole entry): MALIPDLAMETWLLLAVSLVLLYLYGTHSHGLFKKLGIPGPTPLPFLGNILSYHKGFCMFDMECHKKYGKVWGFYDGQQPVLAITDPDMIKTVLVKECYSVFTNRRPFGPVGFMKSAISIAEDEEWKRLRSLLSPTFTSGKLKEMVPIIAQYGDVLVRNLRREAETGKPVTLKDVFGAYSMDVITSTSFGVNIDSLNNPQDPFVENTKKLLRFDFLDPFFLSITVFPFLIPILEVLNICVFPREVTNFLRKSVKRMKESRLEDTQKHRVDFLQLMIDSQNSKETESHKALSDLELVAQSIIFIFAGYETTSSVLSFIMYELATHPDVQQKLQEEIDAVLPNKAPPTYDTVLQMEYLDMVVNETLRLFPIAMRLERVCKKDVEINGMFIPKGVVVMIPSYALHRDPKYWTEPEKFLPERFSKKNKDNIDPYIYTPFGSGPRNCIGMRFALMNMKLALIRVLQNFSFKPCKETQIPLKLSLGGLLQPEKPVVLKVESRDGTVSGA
Sequence of c-Raf-1 (P04049 whole entry, looked up): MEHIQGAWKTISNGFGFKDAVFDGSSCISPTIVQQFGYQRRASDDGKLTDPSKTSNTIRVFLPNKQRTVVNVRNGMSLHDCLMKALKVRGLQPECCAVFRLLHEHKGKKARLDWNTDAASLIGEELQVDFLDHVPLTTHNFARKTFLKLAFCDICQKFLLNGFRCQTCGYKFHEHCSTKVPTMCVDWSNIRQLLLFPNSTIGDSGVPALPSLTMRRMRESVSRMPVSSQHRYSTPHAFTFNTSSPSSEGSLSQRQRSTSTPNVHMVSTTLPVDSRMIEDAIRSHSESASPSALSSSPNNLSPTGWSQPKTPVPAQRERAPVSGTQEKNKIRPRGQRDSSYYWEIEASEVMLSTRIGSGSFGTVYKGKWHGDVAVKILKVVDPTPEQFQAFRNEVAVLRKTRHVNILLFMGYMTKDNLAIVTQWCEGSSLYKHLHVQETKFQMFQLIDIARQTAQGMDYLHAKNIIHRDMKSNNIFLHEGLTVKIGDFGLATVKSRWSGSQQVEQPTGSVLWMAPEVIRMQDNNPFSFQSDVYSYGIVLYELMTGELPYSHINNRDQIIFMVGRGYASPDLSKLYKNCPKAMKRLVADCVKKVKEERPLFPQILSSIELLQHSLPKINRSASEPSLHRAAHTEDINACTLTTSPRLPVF

In the case of `CC(C)Cc1ncnc2[nH]cc(C(=O)c3c(F)ccc(NS(=O)(=O)c4ccc(C(F)(F)F)cc4)c3F)c12` [P-1015, N-[2,4-Difluoro-3-(4-isobutyl-7H-pyrrolo[2,3-d]pyrimidine-5-carbonyl)-phenyl]-4-trifluoromethyl-benzenesulfonamide], the IC50 [1] is reported as > 0.1 µM, the “Biochemical activity ratio B/V600E” value [2] is reported as 0.1-10 and the “Biochemical activity ratio B/C” value [2] is reported as >10. For the same compound, the IC50 [3] was > 0.1 µM, the “Biochemical activity ratio V600E/C” value [3] was >10 and the IC50 [4] was < 0.1 µM. The IC50 ([5]; human, 15 min) was > 10 µM, the IC50 [6, 11] was > 10 µM and the IC50 [7, 12] was > 10 µM. The IC50 [8] was > 10 µM and the IC50 [9] was 5 to 10 µM.

For `O=C(c1c(F)ccc(NS(=O)(=O)c2ccc(C(F)(F)F)cc2)c1F)c1c[nH]c2ncnc(Cl)c12` [P-1016, N-[3-(4-Chloro-7H-pyrrolo[2,3-d]pyrimidine-5-carbonyl)-2,4-difluoro-phenyl]-4-trifluoromethyl-benzenesulfonamide], the IC50 [1] was > 0.1 µM, the “Biochemical activity ratio B/V600E” value [2] was 0.1-10 and the “Biochemical activity ratio B/C” value [2] was >10. For the same compound, the IC50 [3] was > 0.1 µM, the “Biochemical activity ratio V600E/C” value [3] was >10 and the IC50 [4] was < 0.1 µM. For the same compound, the “turbidity threshold (L, M, H) 1.4” value [10] was “L (low solubility if the threshold concentration is <31.3 μM)”, the “turbidity threshold (L, M, H) 6.8” value [10] was “L (low solubility if the threshold concentration is <31.3 μM)” and the “turbidity threshold (L, M, H) 7.4” value [10] was “H (high solubility if the threshold concentration is >250 μm)”. The IC50 ([5]; read-out: Cyp IC50 1A2, CYP1A2, substrate CEC) was > 10 µM, the IC50 [6, 11] was > 10 µM and the IC50 [7, 12] was > 10 µM. The IC50 [8] was > 10 µM and the IC50 [9, 13] was > 10 µM.

In the case of `CC(C)CNc1ncnc2[nH]cc(C(=O)c3c(F)ccc(NS(=O)(=O)c4ccc(C(F)(F)F)cc4)c3F)c12` [P-1020, N-[2,4-Difluoro-3-(4-isobutylamino-7H-pyrrolo[2,3-d]pyrimidine-5-carbonyl)-phenyl]-4-trifluoromethyl-benzenesulfonamide], the IC50 [1] is reported as < 0.1 µM, the “Biochemical activity ratio B/V600E” value [2] is reported as 0.1-10 and the “Biochemical activity ratio B/C” value [2] is reported as >10. For the same compound, the IC50 [3] was > 0.1 µM, the “Biochemical activity ratio V600E/C” value [3] was >10 and the IC50 [4] was < 0.1 µM. For the same compound, the “turbidity threshold (L, M, H) 1.4” value [10] was “H (high solubility if the threshold concentration is >250 μm)”, the “turbidity threshold (L, M, H) 7.4” value [10] was “H (high solubility if the threshold concentration is >250 μm)” and the IC50 ([5]; human, 15 min) was > 10 µM. For the same compound, the IC50 [6, 11] was > 10 µM, the IC50 [7, 12] was > 10 µM and the IC50 [8] was > 10 µM. For the same compound, the IC50 [9, 13] was > 10 µM.

In the case of `CCCc1ccc(S(=O)(=O)Nc2ccc(F)c(C(=O)c3c[nH]c4ncnc(OCC)c34)c2F)cc1` [P-1038, N-[3-(4-Ethoxy-7H-pyrrolo[2,3-d]pyrimidine-5-carbonyl)-2,4-difluoro-phenyl]-4-propyl-benzenesulfonamide], the IC50 [1] is reported as < 0.1 µM, the “Biochemical activity ratio B/V600E” value [2] is reported as 0.1-10 and the “Biochemical activity ratio B/C” value [2] is reported as >10. The IC50 [3] was > 0.1 µM, the “Biochemical activity ratio V600E/C” value [3] was >10 and the IC50 [4] was < 0.1 µM. The IC50 ([5]; human, 15 min) was > 10 µM, the IC50 [6] was 5 to 10 µM and the IC50 [7] was 5 to 10 µM. For the same compound, the IC50 [8] was > 10 µM and the IC50 [9] was 5 to 10 µM.

In the case of `O=C(c1c(F)ccc(NS(=O)(=O)c2ccccc2)c1F)c1c[nH]c2nccc(C(F)(F)F)c12` [P-2017, N-[2,4-Difluoro-3-(4-trifluoromethyl-1H-pyrrolo[2,3-b]pyridine-3-carbonyl)-phenyl]-benzenesulfonamide], the IC50 [1] is reported as > 0.1 µM, the “Biochemical activity ratio B/V600E” value [2] is reported as 0.1-10 and the “Biochemical activity ratio B/C” value [2] is reported as >10. For the same compound, the IC50 [3] was > 0.1 µM, the “Biochemical activity ratio V600E/C” value [3] was >10 and the IC50 [4] was < 0.1 µM. The “turbidity threshold (L, M, H) 1.4” value [10] was “L (low solubility if the threshold concentration is <31.3 μM)”, the “turbidity threshold (L, M, H) 4.5” value ([10]; pH 4.5 (SIF)) was “L (low solubility if the threshold concentration is <31.3 μM)” and the “turbidity threshold (L, M, H) 6.8” value [10] was “L (low solubility if the threshold concentration is <31.3 μM)”. The “turbidity threshold (L, M, H) 7.4” value [10] was “M (moderate solubility if the threshold concentration is 31.3 μM to 250 μM)”.

From US9617267B2, “Compounds and methods for kinase modulation, and indications therefor” (Plexxikon Inc., priority 2009, dated 2017)
